Data on 80 compounds can be found in PubChem BioAssay AID489032 (Sanford-Burnham Center for Chemical Genomics, 2010).

Activity calls are given as the source filed them. How the calls were made is not given here.

For the assay, the system named is UPR adaptive arm reporter cells, luciferase luminescence. The assay can be described thus: adaptive unfolded protein response reporter activation – cell-based, luciferase luminescence, dose response (AID 489032).

Take `CN(C)CC/C=C1\c2ccc(F)cc2Sc2cc(F)c(Cl)cc21`: the EC50 is 15.8 µM.

With `O=C(Nc1nc2ccccc2s1)c1cc2c(s1)-c1ccccc1OC2`, the EC50 is 44.9 µM (inactive). In the case of `CC(C)(C)C(=O)NC(=S)NNC(=O)c1ccc(-c2ccccc2)cc1` it was 9.38 µM; in that of `Cc1cc(C)c2sc(N(CCCN(C)C)C(=O)c3ccc(S(=O)(=O)N4CCCc5ccccc54)cc3)nc2c1`, > 80 µM (inactive).

For `O=C(Nc1ccc(Br)cc1)c1cc(-c2ccncc2)nc2ccccc12`, the EC50 is 11.1 µM. Regarding `COc1cc(C(=O)Nc2cc(-c3nc4cc(C)ccc4o3)ccc2C)cc(OC)c1OC`, the EC50 was > 80 µM (inactive).

Consider `Cc1ccc(C(=O)Nc2cc(S(=O)(=O)N3CCOCC3)ccc2N2CCCC2)cc1`, for which the EC50 was 63.2 µM (inactive). As to `CC1(C)CC[C@@]23CC[C@]4(C)[C@@](OC2=O)(C3C1)[C@H]1O[C@H]1C1[C@@]2(C)CC[C@H](O)C(C)(C)C2CC[C@]14C` (stereo not given in full), the EC50 is > 80 µM (inactive). `Brc1cc2c(cc1/C=N/Nc1nc3ccccc3s1)OCO2`: the EC50 is 57 µM (inactive). For `Clc1ccc(C2=Nn3c(nnc3-c3cc(-c4ccccc4)n[nH]3)SC2)cc1`, the EC50 was > 80 µM (inactive). On to `Cc1cc(NC(=O)/C(C#N)=C/c2ccc(-c3ccc(SC(F)F)cc3)o2)n(-c2ccccc2)n1`, for which the EC50 was > 80 µM (inactive). Regarding `Cc1cc(NC(=O)CSc2nc3sc(C)c(C)c3c(=O)n2C2CCCC2)no1`, the EC50 was > 80 µM (inactive). `CCOC(=O)c1c(NC(=O)Cc2cccs2)sc(C(=O)NC2CCCCC2)c1C`: the EC50 was > 80 µM (inactive). On to `Cc1ccnc(N/C=C(\C#N)c2nc(-c3cccc(Br)c3)cs2)c1`, for which the EC50 is 20.7 µM (inactive).

With `COc1ccc(-c2nc3scc(-c4ccc(OC)c(OC)c4)c3c(=O)o2)cc1`, the EC50 is > 80 µM (inactive). In the case of `Cc1ccc2c(c1)C(c1ccc([N+](=O)[O-])cc1)=NNC(c1ccc(Br)cc1)=N2`, the EC50 is > 80 µM (inactive). Consider `CCCn1c(Nc2nc3ccccc3n2C)nc2ccccc21`, for which the EC50 was > 80 µM (inactive).

Take `Cc1ccc(NC(=O)c2cc(S(=O)(=O)N(C)C)ccc2N2CCCC2)cc1S(=O)(=O)N(C)C`: the EC50 was 32.1 µM (inactive). In the case of `Cc1nn(Cc2c(Cl)cccc2Cl)c(C)c1NC(=O)c1cn(-c2ccccc2)nc1-c1ccccc1`, the EC50 is > 80 µM (inactive). Take `O=C(Nc1nc(-c2ccc(F)c(F)c2)cs1)Nc1ccc(F)cc1F`: the EC50 is 37.2 µM (inactive). As for `COC(=O)c1cc([N+](=O)[O-])c(-n2ccnc2)c([N+](=O)[O-])c1`, the EC50 is > 80 µM (inactive).

Turning to `COc1ccc(C(=O)O/N=C/c2c(C(F)(F)F)nn(C)c2SCc2ccccc2Cl)cc1`, the EC50 was > 80 µM (inactive). Next, `COc1cc(-c2noc(C)c2/C=C/c2ccc(OC(C)=O)cc2)cc(OC)c1OC`: > 80 µM (inactive); `Cc1ccc(-c2nnc(-c3ccc(NC(=O)Cc4cccs4)cc3)o2)cc1`: > 80 µM (inactive). Turning to `CCOC(=O)c1c(NC(=O)c2cc(-c3ccc(O)cc3)on2)sc(C(C)=O)c1C`, the EC50 is > 80 µM (inactive).

In the case of `COc1ccc(-c2cc(C(F)F)n3ncc(C(=O)Nc4ccc(C(=O)N5CCOCC5)cc4)c3n2)cc1`, the EC50 is > 80 µM (inactive).

For the compound `Cn1c(-c2ccccc2)c(/C=N/NC(=O)c2ccc(O)cc2)c2ccccc21`, the EC50 was > 80 µM (inactive). In the case of `Cc1ccc(C(C)C)c(OCc2ccc(C(=O)N/N=C/c3ccc(O)c(O)c3)cc2)c1` it was 8.24 µM. For `CC1(C)C[C@H](O)[C@]2(CO)[C@H](O)C[C@]3(C)C(=CCC4[C@@]5(C)CC[C@H](O)C(C)(C)C5CC[C@]43C)[C@@H]2C1` (stereo not given in full), the EC50 was 18.1 µM. Regarding `N#C/C(=C\c1ccc(N2CCCC2)c([N+](=O)[O-])c1)c1nc2ccccc2[nH]1`, the EC50 was > 80 µM (inactive). With `NC(=S)N/N=C/c1ccc(C23CC4CC(CC(C4)C2)C3)cc1`, the EC50 is 40 µM (inactive). Turning to `Cn1nc(C(F)(F)F)c(/C=N/OC(=O)c2ccccc2)c1SCc1ccccc1Cl`, the EC50 is 10.3 µM. Consider `CN(C)CCCn1cnc2c(c1=N)C(c1ccccc1)c1ccc3ccccc3c1O2` (stereo not given), for which the EC50 is > 80 µM (inactive). As to `O=C(N/N=C/C(Br)=C\c1ccccc1)c1n[nH]c2c1CCC2`, the EC50 was > 80 µM (inactive).

On to `O=C1NC(=O)C(=Cc2cn(CCOc3ccc4c(c3)OCO4)c3ccccc23)C(=O)N1`, for which the EC50 was 31.2 µM (inactive).

For `Cc1cccc(NC(=O)/C(C#N)=C/c2cn(CC(=O)NCc3ccco3)c3ccccc23)c1C`, the EC50 was > 80 µM (inactive). In the case of `C/C(=N/NC(=O)c1ccc(C)s1)c1cccc(NC(=O)COc2ccc(Cl)cc2C)c1` it was 72.4 µM (inactive); in that of `c1ccc(Oc2c3ccccc3nc3ccccc23)cc1`, > 80 µM (inactive).

Regarding `Brc1ccc2c(c1)C(c1ccc(N3CCOCC3)cc1)=NNC(c1cccs1)=N2`, the EC50 was 26.4 µM (inactive). As to `CCCCCCCCCCOC(=O)Cn1c(COc2ccc(C)cc2)[n+](C)c2ccccc21`, the EC50 was > 80 µM (inactive). For the compound `CCOC(=O)c1sc(NC(=S)NC(=O)c2ccccc2)c(C(=O)OCC)c1C`, the EC50 was > 80 µM (inactive).

On to `Cc1ccc(Cn2c(=O)n(-c3ccccc3)c(=O)c3ccc(C(=O)NCc4ccco4)cc32)cc1`, for which the EC50 was > 80 µM (inactive). Turning to `Oc1ccc(/C=N/Nc2nc(N3CCCC3)nc(N3CCCC3)n2)cc1O`, the EC50 was > 80 µM (inactive).

As to `Cc1ccc(Cn2c(C(C)Nc3nc(-c4ccc(F)cc4)cs3)nc3cc(Cl)c(Cl)cc32)cc1` (stereo not given), the EC50 is > 80 µM (inactive).

For `O=C(CC1C[C@H](C(=O)N2CCCCC2)[C@@]2(CCc3ccccc3)c3[nH]c4ccccc4c3CCN2C1=O)NCCC1=CCCCC1` (stereo not given in full), the EC50 was 43 µM (inactive).

As to `CCN(CC)CCn1c(SCC(=O)Nc2ccc(F)cc2)nc2c(sc3ccccc32)c1=O`, the EC50 was > 80 µM (inactive).

As for `COc1ccc2[nH]c3nc(SCc4nnc(-c5ccc(C)cc5)o4)nnc3c2c1`, the EC50 is 27.8 µM (inactive). As to `COc1ccc2cc3c(N)nn(C(=O)C4CCC(C(C)(C)C)CC4)c3nc2c1` (stereo not given), the EC50 is > 80 µM (inactive). Consider `CCOC(=O)c1nnc(-c2ccccc2)nc1Sc1ccccc1Cl`, for which the EC50 was > 80 µM (inactive). In the case of `Cc1cc(C)c(NC(=O)CSc2nc(COc3ccccc3)nc3ccccc23)c(C)c1`, the EC50 is > 80 µM (inactive).

For the compound `CCCNC(=O)c1ccc2c(=O)c(O)c(-c3ccc(OC)cc3)[nH]c2c1`, the EC50 is > 80 µM (inactive). `O=C(Nc1ccc(C(F)(F)F)cc1)c1cc(-c2cccnc2)nc2ccc(Br)cc12`: the EC50 is 15.6 µM.

On to `CCC(=O)Nc1nnc(SCC(=O)c2ccc3c(c2)Cc2ccccc2-3)s1`, for which the EC50 was > 80 µM (inactive).

As to `CCC(=O)Nc1ccc(NC(=O)CSc2nc3cc4c(cc3cc2C)CCC4)cc1`, the EC50 is > 80 µM (inactive). Next, `O=c1[nH]c(-c2ccc(-c3cccc(Cl)c3)o2)nc2ccccc12`: 13.7 µM; `O=C(Nc1ccc(Cl)cc1)Nc1ccccc1Sc1ncc([N+](=O)[O-])s1`: > 80 µM (inactive); `O=C(O)c1ccc(N2C(=O)/C(=C/c3ccc(-c4ccc([N+](=O)[O-])cc4)o3)C=C2c2ccccc2)cc1`: > 80 µM (inactive). In the case of `CC(C)(C)C(=O)NC(=S)NNC(=O)C(c1ccccc1)c1ccccc1` it was 27 µM (inactive); in that of `Cc1cc(SCC(=O)c2ccc(O)c(O)c2)n2nc(C)c(-c3ccccc3)c2n1`, > 80 µM (inactive). Take `CCOC(=O)c1c(-c2ccc(C)o2)csc1NC(=O)COC(=O)c1ccc(NC(N)=O)cc1`: the EC50 is > 80 µM (inactive). `O=C1NC(=O)N(Cc2ccc(F)cc2)C(=O)/C1=C/c1cccs1`: the EC50 is > 80 µM (inactive). As to `CCOC(=O)c1sc(-c2ccccc2)cc1NC(=O)Nc1ccc([N+](=O)[O-])cc1`, the EC50 was 24.2 µM (inactive).

In the case of `COc1ccc(CCn2c(C3CCCCC3)nc3c(c(=O)c4ccccc4n3C)c2=O)cc1`, the EC50 was > 80 µM (inactive).

On to `COc1ccc(-c2cc(C(F)F)n3ncc(C(=O)N4CCc5ccccc5C4)c3n2)cc1`, for which the EC50 was 28.6 µM (inactive). For the compound `COc1ccc(C(=O)/C=C/c2cccs2)c(OC(=O)c2cccc([N+](=O)[O-])c2)c1`, the EC50 was > 80 µM (inactive).

As to `CCC1CCc2c(sc3nc(SCC(=O)NCc4ccco4)n(-c4ccccc4)c(=O)c23)C1` (stereo not given), the EC50 is > 80 µM (inactive).

Take `CCc1ccccc1NC(=O)C(CC)Sc1nc2cc3c(cc2c(=O)n1Cc1ccco1)OCO3` (stereo not given): the EC50 was 14.6 µM. `Cn1cc(/C=C(\C#N)C(=O)Nc2cccc([N+](=O)[O-])c2)c2ccccc21`: the EC50 was > 80 µM (inactive). In the case of `COc1cc(CNCCO)cc(Cl)c1OCc1ccc(Cl)cc1Cl`, the EC50 is > 80 µM (inactive). For `CCOC(=O)c1ccc(-c2ccc(/C=N/NC(=O)CN(c3cccc(C)c3)S(C)(=O)=O)o2)cc1`, the EC50 was 18.2 µM. Next, `Nc1nc(Nc2ccccc2)nc(NC2CCCCC2)c1[N+](=O)[O-]`: 29.2 µM (inactive). Consider `CN(C)c1ccc(/C=C/[N+](=O)[O-])cc1`, for which the EC50 was > 80 µM (inactive). Consider `CCOc1ccccc1CNC(=O)C1CCN(c2nnc(C)c3c(C)n(-c4ccc(C)cc4)nc23)CC1`, for which the EC50 was > 80 µM (inactive). With `Cc1ccc2c(c1)C(=O)C(=O)N2Cc1ccc(C(F)(F)F)cc1`, the EC50 is 27.5 µM (inactive).

In the case of `O=C(C[C@H]1C[C@H](C(=O)N2CCCCC2)[C@@]2(CCc3ccccc3)c3[nH]c4ccc(Cl)cc4c3CCN2C1=O)NCCC1=CCCCC1`, the EC50 is > 80 µM (inactive). Regarding `Cc1nc(SCC(=O)Nc2ccc(F)cc2)c(C#N)c(C)c1CC(=O)c1ccc(Br)cc1`, the EC50 is > 80 µM (inactive). As to `Cc1ccccc1OCc1nc(-c2ccc(NC(=O)c3ccc4c(c3)OCO4)cc2)no1`, the EC50 is > 80 µM (inactive). Take `CCN=C1S/C(=C\c2cn(CC(=O)NCc3ccco3)c3ccccc23)C(=O)N1CC`: the EC50 is > 80 µM (inactive). With `CCOc1ccc(/C=C/C(O)=C2/C(=O)NC3(C)CC2c2ccccc2O3)cc1OC` (stereo not given), the EC50 was > 80 µM (inactive). As for `CCOc1ccccc1N=Cc1c(O)c2ccccc2oc1=O`, the EC50 was 11.6 µM.
